Test results from ChEMBL document CHEMBL1130819, “Synthesis and biological evaluation of 1,2-disubstituted carbonucleosides of 2-amino-6-substituted purine and 8-azapurine” (Bioorg Med Chem Lett, 1998).
In brackets after ≈: the same amount, converted by molar mass.

What was measured:
MOLT-4 = experiment: Antitumor activity was evaluated against Molt4/C8 cell line; format: functional, cell-based; conditions: Homo sapiens
Human alphaherpesvirus 3 [1] = experiment: Antiviral activity against Varicella-Zoster virus (07/1strain); format: functional, organism-based
Human alphaherpesvirus 3 [2] = experiment: Antiviral activity against Varicella-Zoster virus(YS/R strain); format: functional, organism-based
L1210 = experiment: Antitumor activity was evaluated against L1210 cell line; format: functional, cell-based; conditions: Mus musculus
Human alphaherpesvirus 3 [3] = experiment: Antiviral activity against Varicella-Zoster virus(OKA strain); format: functional, organism-based
CCRF-CEM = experiment: Antitumor activity was evaluated against CEM cell line; format: functional, cell-based; conditions: Homo sapiens

For `Nc1nc(N)c2nnn([C@H]3CCC[C@H]3CO)c2n1`, the IC50 (MOLT-4) was 120 µM, the EC50 (Human alphaherpesvirus 3 [1]) was 45 µg/mL (≈ 181 µM) and the EC50 (Human alphaherpesvirus 3 [2]) was 50 µg/mL (≈ 201 µM). It also gave an IC50 (L1210) of 77.2 µM, an EC50 (Human alphaherpesvirus 3 [3]) of 32 µg/mL (≈ 128 µM) and an IC50 (CCRF-CEM) of 90.5 µM.

In the case of `Nc1nc(Cl)c2nnn([C@H]3CCC[C@H]3CO)c2n1`, the IC50 (MOLT-4) is reported as 75.3 µM, the IC50 (L1210) is reported as 71 µM and the IC50 (CCRF-CEM) is reported as 53 µM.

For `Nc1nc(Cl)c2ncn([C@H]3CCC[C@H]3CO)c2n1`, the IC50 (MOLT-4) was 49.1 µM, the IC50 (L1210) was 71.4 µM and the IC50 (CCRF-CEM) was 83 µM.

For `Nc1nc(N)c2ncn([C@H]3CCC[C@H]3CO)c2n1`, the IC50 (MOLT-4) was 147 µM, the EC50 (Human alphaherpesvirus 3 [2]) was 37 µg/mL (≈ 149 µM) and the IC50 (L1210) was 113 µM. It also gave an IC50 (CCRF-CEM) of 90 µM.

In the case of `Nc1nc(O)c2ncn([C@H]3CCC[C@H]3CO)c2n1`, the IC50 (MOLT-4) is reported as > 200 µM, the IC50 (L1210) is reported as > 200 µM and the IC50 (CCRF-CEM) is reported as > 200 µM.

`Nc1nc(O)c2nnn([C@H]3CCC[C@H]3CO)c2n1` was tested, and the IC50 (MOLT-4) was 86 µM, the IC50 (L1210) was 80 µM and the IC50 (CCRF-CEM) was 86.7 µM.
